In series [1] the test system is pig sciatic nerve tissue cross sections. Put plainly: Ex vivo nerve-specific fluorophore screening on nerve tissue sections. Particulars: for nerve-specific fluorescence signal in cross-sectioned nerve: 20 min incubation; for adipose uptake: both ex vivo and in vivo. The protocol:
Phase contrast image (top) and fluorescence image (bottom) of nerve tissue sections incubated with 100 μM of test fluorophores are shown. Nerve-specific fluorescence intensity was determined using staining of pig sciatic nerve cut in cross section. Nerve tissue sections were incubated in 30% FBS solutions without (negative control, autofluorescence only) and with each fluorophore. As a positive control, previously reported nerve-specific BMB was used. Shown are phase contrast image (top) and fluorescence image (bottom) of nerve tissue sections incubated with 100 μM of each fluorophore. The control autofluorescence images were taken with equivalent exposure time and normalization. Arrowheads indicate fluorescence signals in nerve bundles. Ad=adipose tissue. Scale bars=200 μm. The SBR of each nerve relative to the neighboring adipose tissue was quantified and labeled as—, SBR<1; +, SBR=1−2; and ++, SBR >2.
Sciatic nerves from female Yorkshire pigs were harvested, fixed in 2% paraformaldehyde (PFA), and flash frozen in optimal cutting temperature (OCT) compound using liquid nitrogen. Nerve tissues were cut in cross section using a cryostat at […] thickness onto positively charge glass slides. Tissue sections were washed once with phosphate buffered saline (PBS) for 2 min to remove residual OCT. The tissue was then fixed to the slide with 2% PFA for 15 min, followed by washing with PBS (3×5 min). A formulation was previously developed for intravenous (IV) administration and was used in the current study to incubate the fluorophores with the nerve tissue (25). All fluorophores were mixed from the 100 mM stock solution into the IV formulation at 100 µM and incubated with the washed nerve tissue sections at room temperature for 20 min. Additional IV formulation not containing fluorophore was mixed and used to wash each nerve section twice (5 min per wash) following incubation with the formulated fluorophore. The nerve section was then washed an additional 2 times with PBS (5 min per each), after which coverslips were mounted using Fluoromount-G (Southern Biotech, Birmingham, Ala.).
NIR fluorescence microscopy for ex vivo nerve tissue slides was performed on a Nikon Eclipse TE300 microscope system as previously described (12, 19, 25). The microscope was equipped with a 100 W mercury light source, NIR-compatible optics, and a NIR-compatible 10× Plan Fluor objective lens and a 100× Plan Apo oil immersion objective lens (Nikon, Melville, N.Y.). Images were acquired on an Orca-AG (Hamamatsu, Bridgewater, N.J.). Image acquisition and analysis was performed using IPLab software (Scanalytics, Fairfax, Va.). A custom filter set (Chroma Technology Corporation, Brattleboro, Vt.) composed of a 650±22 nm excitation filter, a 675 nm dichroic mirror, and an 710±25 nm emission filter were used to detect Oxazine derivatives and Rhodamine 800 signals in the nerve tissue slides. For BMB, a mercury light source was passed through a 360±25 nm BP excitation filter, a 400 nm LP beam splitter, and a 550±50 nm emission filter.

The test system of series [2] is rat brachial plexus and sciatic nerves. Put plainly: In vivo nerve-specificity screening with FLARE imaging. The note with it: for nerve-specific fluorescence signal in vivo: SD rats, 2 mg/kg (1 μmol) iv, 4 h after injection, brachial plexus and sciatic nerve. From the text:
The dual-NIR channel FLARE^a imaging system has been described in detail previously (26-28). In this study, a 670 nm excitation was used at a fluence rate of 4 mW/cm^2, with white light (400-650 nm) at 40,000 1×. Color and NIR fluorescence images were acquired simultaneously with custom software at rates up to 15 Hz over a 15 cm diameter field of view. A pseudo-colored lime green was used for NIR fluorescence in the color-NIR merged images. The imaging system was positioned at a distance of 18 inches from the surgical field.
Initial in vivo screening occurred in rats based on our previous study of BMB (Supplementary Methods) (25). For kinetic and dose-response studies, 50-400 nmol (0.8-6.3 mg/kg) of Oxazine 4 was injected intravenously into mice and measurements taken over 24 h. Control images were acquired prior to injecting NIR fluorophores. The fluorescence signal in nervous tissues and signal-to-background ratio (SBR) compared to neighboring muscle (Mu) were obtained over the period of imaging. For the large animal study, the optimal dose found in mice (200-400 nmol per mouse) was used in pigs by scaling to body surface area (29, 30).
Sprague-Dawley (SD) male rats weighing 250-300 g were purchased from Charles River Laboratories (Wilmington, Mass.). BMB, Oxazine 1, Oxazine 4, Oxazine 170, Oxazine 750, and Rhodamine 800 were initially screened to investigate nerve specificity in rats. For the initial screening, we administered a relatively high dose (2 mg/kg; 1 μmol) of each fluorophore intravenously. 4 h after injection, brachial plexus (BP) and sciatic nerve (SN) were imaged using the intraoperative FLARE^a system for in vivo nerve-specific fluorophores screening.

A short description of series [3]: Optical property measurements (absorbance and fluorescence spectra). It counts as physicochemical. Particulars: 100% FBS with 50 mM HEPES, pH 7.4, 37° C. The protocol: Absorbance and fluorescence spectra were obtained at a concentration of […] in 100% FBS supplemented with 50 mM HEPES, pH 7.4. B) Optical properties of Oxazine 4 were measured in PBS (pH 7.4), FBS (pH 7.4), MeOH, and DMSO.
Oxazine derivatives were obtained from Fisher Scientific Inc. (Pittsburgh, Pa.) or Sigma-Aldrich (Saint Louis, Mo.), and BMB was synthesized as described previously (25). Optical measurements were performed at 37° C. in phosphate-buffered saline (PBS), pH 7.4 or 100% fetal bovine serum (FBS) buffered with 50 mM HEPES, pH 7.4. Absorbance and fluorescence emission spectra were measured using fiber optic HR2000 absorbance (200-1100 nm) and USB2000FL fluorescence (350-1000 nm) spectrometers (Ocean Optics, Dunedin, Fla.). NIR excitation was provided by a 532 nm green laser pointer (Opcom Inc., Xiamen, China) set to 5 mW and coupled through a […] core diameter, NA 0.22 fiber (Fiberguide Industries, Stirling, N.J.). In silico calculation of the partition coefficient (log D at pH 7.4) was calculated using Marvin and J Chem calculator plugins (ChemAxon, Budapest, Hungary). Chemical similarities were calculated by Instant J Chem 6.04 using “Chemical Hashed Fingerprint” with the Normalized Euclidean dissimilarity screening configuration (ChemAxon).
All optical measurements were performed at 37° C. in phosphate-buffered saline (PBS), pH 7.4, 100% fetal bovine serum (FBS) buffered with 50 mM HEPES, pH 7.4, methanol (MeOH), or dimethyl sulfoxide (DMSO). Absorbance and fluorescence emission spectra of the series of NIR fluorophores were measured using fiber optic HR2000 absorbance (200-1100 nm) and USB2000FL fluorescence (350-1000 nm) spectrometers (Ocean Optics, Dunedin, Fla.). Excitation light was provided by a 532 nm green laser pointer (Opcom Inc., Xiamen, China) set to 5 mW and coupled through a 300 μm core diameter, NA 0.22 fiber (Fiberguide Industries, Stirling, N.J.). In silico calculation of the partition coefficient (log D at pH 7.4) was calculated using Marvin and J Chem calculator plugins (ChemAxon, Budapest, Hungary).

The mark [4] stands for this setting: 100 μM fluorophore, pig sciatic nerve sections.
Setting [5] is: comparison of structures in discussion.

SMILES strings stand for the structures. Entries after “also recorded” stand apart in the source; their conditions may differ. Where only a bound is given, the exact number is not on record here.

Consider five molecules from patent publication US11001562B2, “Near-infrared fluorescent nerve contrast agents and methods of use thereof” (Beth Israel Deaconess Medical Center, priority 2013, dated 2021).

For the molecule `CC/N=c1/cc2oc3cc(NCC)c(C)cc3nc-2c2ccccc12` [Oxazine 170], in series [1] (setting [4]), the “nerve-specific fluorescence signal in cross-sectioned nerve” value is on record as “weak nerve-specific fluorescence signal”. In addition, the adipose uptake entry in series [1] is listed as “strong adipose uptake; also recorded: high accumulation in adipose tissue”. Besides, the “nerve-specific fluorescence signal in vivo” value in series [2] was “nerve highlighting fluorophores”. Further, in series [3], the “Abs (peak absorbance)” value came to 625 nm, the “Em (peak emission)” value is on record as 650 nm and the “λ (extinction coefficient)” value is given as 69,000 M^−1cm^−1.

For the molecule `CC/N=c1/cc2oc3c4c5c(cc3nc-2c2ccccc12)CCCN5CCC4` [Oxazine 750], the “nerve-specific fluorescence signal in cross-sectioned nerve” value in series [1] (setting [4]) is on record as “strong fluorescence signal throughout the cross-sectioned nerve”. Further, the adipose uptake result in series [1] is on record as “strong adipose uptake”. Moreover, in series [3], the “Abs (peak absorbance)” value is recorded as 676 nm, the “Em (peak emission)” value amounted to 684 nm and the “λ (extinction coefficient)” value was 44,000 M^−1cm^−1.

Consider `COc1cc(/C=C/c2ccc(N)cc2)ccc1/C=C/c1ccc(N)cc1` [BMB, reference compound], for which, in series [1] (setting [4]), the “nerve-specific fluorescence signal in cross-sectioned nerve” value was “relatively high fluorescence signal in the nerve”, the “SBR of nerve relative to neighboring adipose tissue” value was < 1 and the adipose fluorescence signal entry is recorded as “even higher than the target signal”. For the same molecule, in series [2], the “nerve-specific fluorescence signal in vivo” value was “nerve highlighting fluorophores”. Also, in series [3], the “Abs (peak absorbance)” value was 397 nm, the “Em (peak emission)” value is listed as 498 nm and the “λ (extinction coefficient)” value was 52,800 M^−1cm^−1.

As for `N#CC1=c2cc3c4c(c2Oc2c1cc1c5c2CCCN5CCC1)CCC[N+]=4CCC3` [Rhodamine 800], in series [1] (setting [4]), the “nerve-specific fluorescence signal in cross-sectioned nerve” value is reported as “strong fluorescence signal throughout the cross-sectioned nerve”. In addition, the “uptake in / targeting of nerve” value in series [2] (summary statement related to log D) was “low and low targeting affinity to the nerve”. In addition, in series [3], the “Abs (peak absorbance)” value is recorded as 697 nm, the “Em (peak emission)” value came out at 710 nm and the “λ (extinction coefficient)” value is given as 68,000 M^−1cm^−1.

As to `CCN(CC)c1ccc2nc3ccc(=[N+](CC)CC)cc-3oc2c1` [Oxazine 1], in series [1] (setting [4]), the “nerve-specific fluorescence signal in cross-sectioned nerve” value was “did not show any nerve-specific fluorescence signal” and the adipose fluorescence signal entry is given as “adipose-specific fluorescence signal only”. Further, the “nerve-specific fluorescence signal in vivo” value in series [2] is given as “weak signal in the vicinity of nerve”. In addition, in series [2] (setting [5]), the “adipose signal (discussion summary)” value is “high adipose” and the “nerve signal (discussion summary)” value was “low nerve signal”. Besides, in series [3], the “Abs (peak absorbance)” value turned out to be 655 nm, the “Em (peak emission)” value was found to be 670 nm and the “λ (extinction coefficient)” value is 196,000 M^−1cm^−1.
